38 compounds from US7087768B2, “Fumagillol derivatives and preparing method thereof” (Equispharm Co., Ltd., priority 2001, dated 2006) can be followed below.

Values after ≈ are worked out from the molar mass of the structure shown.

The test system of the first assay is HUVECs (human umbilical vein endothelial cells). The experiment in a line: Inhibitory effect of fumagillol derivative on HUVEC cell growth (colorimetry). It counts as cell-based. Particulars: Homo sapiens, HUVEC, HUVEC growth, cultured 2–3 days with compound, absorption at 490 nm; read-out: IC50. As to the method:
Using the HUVECs (human umbilical vein endothelial), the effect of the fumagillol derivative of the present invention on cell growth was evaluated.
The HUVECs were added to M199 medium supplemented with 20% FBS (fetal bovine serum), 100 U/ml penicillin, 100 μg/ml streptomycin, 1.5 g/L sodium bicarbonate, 0.1 mg/ml endothelial cell growth supplement (Sigma) and 0.1 mg/ml heparin (Sigma), after which the cells were incubated in an incubator at 37° C. under 5% CO2. Cells were subcultured a maximum of 8 times before being discarded.
In order to evaluate inhibitory activity of the fumagillin derivative on growth of HUVECs, the inventive compound was dissolved in DMSO and its concentration was adjusted from 10 mM to 1 mM. Cells were aliquotted to 96 well plates at a density of 2×10^3 cells per well and incubated for about 12–24 hours to be properly attached to the plate. Thereafter, the medium was replaced with new medium. The cells were treated with the compound obtained from each of the above examples at various concentration ranges of from 10 μM to […], and cultured for 2–3 days, followed by removing 100 μl of the medium from each well.
Colorimetry was performed to determine the extent of cell growth. The cells on each plate was added with 20 μl of aqueous one solution and then incubated at 37° C. under 5% CO2 for 2 hours. Using a 96-well plate reader, absorption was measured at 490 nm.
As such, a conventional TNP-470 having angiogenesis inhibitory effect was used as a control.
Usually IC50 stands for the concentration at which inhibition is half-maximal. For `COc1ccc(NCC(=O)O[C@@H]2CC[C@]3(CO3)[C@@H]([C@@]3(C)OC3CC=C(C)C)[C@@H]2OC)cn1` (stereo partly drawn) [Ex. 36, 6-O-(5-amino-2-methoxypyridine)acetyl fumagillol], the 50% inhibitory concentration (IC50) worked out at 0.021 ng/mL (≈ 0.047 nM).
Still for that read-out and setting: next, `COc1cc(NCC(=O)O[C@@H]2CC[C@]3(CO3)[C@@H]([C@@]3(C)OC3CC=C(C)C)[C@@H]2OC)c([N+](=O)[O-])cc1OC` (stereo partly drawn) [Ex. 5, 6-O-(3,4-dimethoxy-6-nitroaniline)acetyl fumagillol]: 142 ng/mL (≈ 273 nM); `CO[C@@H]1[C@H](OC(=O)CNC2CCCCC2)CC[C@]2(CO2)[C@H]1[C@@]1(C)OC1CC=C(C)C` (stereo partly drawn) [Ex. 66, 6-O-(cyclohexylamino)acetyl fumagillol]: 0.6 ng/mL (≈ 1.42 nM); `CO[C@@H]1[C@H](OC(=O)CNc2ccc3c(c2)OCO3)CC[C@]2(CO2)[C@H]1[C@@]1(C)OC1CC=C(C)C` (stereo partly drawn) [Ex. 23, 6-O-(3,4-methylenedioxyaniline)acetyl fumagillol]: 0.24 ng/mL (≈ 0.522 nM).
As for `CCCNCC(=O)O[C@@H]1CC[C@]2(CO2)[C@@H]([C@@]2(C)OC2CC=C(C)C)[C@@H]1OC` (stereo partly drawn) [Ex. 43, 6-O-(propylamino)acetyl fumagillol], the IC50 is 2400 ng/mL (≈ 6290 nM).
Same read-out and setting: next, `CCC(CC)NCC(=O)O[C@@H]1CC[C@]2(CO2)[C@@H]([C@@]2(C)OC2CC=C(C)C)[C@@H]1OC` (stereo partly drawn) [Ex. 50, 6-O-(1-ethyl-propylamino)acetyl fumagillol]: 24 ng/mL (≈ 58.6 nM).
Take `CCNCC(=O)O[C@@H]1CC[C@]2(CO2)[C@@H]([C@@]2(C)OC2CC=C(C)C)[C@@H]1OC` (stereo partly drawn) [Ex. 41, 6-O-(ethylamino)acetyl fumagillol]: the IC50 is 20 ng/mL (≈ 54.4 nM).
Consider `CCC(C)C(C)NCC(=O)O[C@@H]1CC[C@]2(CO2)[C@@H]([C@@]2(C)OC2CC=C(C)C)[C@@H]1OC` (stereo partly drawn) [Ex. 52, 6-O-(1,2-dimethylbutylamino)acetyl fumagillol], for which the IC50 is 290 ng/mL (≈ 685 nM).
Same read-out and setting: next, `CO[C@@H]1[C@H](OC(=O)CNc2ccc(C#N)cc2)CC[C@]2(CO2)[C@H]1[C@@]1(C)OC1CC=C(C)C` (stereo partly drawn) [Ex. 34, 6-O-(4-cyanoaniline)acetyl fumagillol]: 98 ng/mL (≈ 222 nM); `CC/C=C(C)/C=C/CNCC(=O)O[C@@H]1CC[C@]2(CO2)[C@@H]([C@@]2(C)OC2CC=C(C)C)[C@@H]1OC` (stereo partly drawn) [Ex. 57, 6-O-(4-methyl-hepta-2,4-dienylamino)acetyl fumagillol]: 420 ng/mL (≈ 938 nM).
For `CO[C@@H]1[C@H](OC(=O)CNC2CCC(C(C)(C)C)CC2)CC[C@]2(CO2)[C@H]1[C@@]1(C)OC1CC=C(C)C` (stereo partly drawn) [Ex. 67, 6-O-(4-tert-butyl-cyclohexylamino)acetyl fumagillol], the 50% inhibitory concentration (IC50) worked out at 0.06 ng/mL (≈ 0.126 nM).
Still for that read-out and setting: with `CCCCC(C)NCC(=O)O[C@@H]1CC[C@]2(CO2)[C@@H]([C@@]2(C)OC2CC=C(C)C)[C@@H]1OC` (stereo partly drawn) [Ex. 51, 6-O-(1-methyl-pentylamino)acetyl fumagillol] the figure was 32000 ng/mL (≈ 75500 nM).
For the compound `CCOc1cc(C)c(NCC(=O)O[C@@H]2CC[C@]3(CO3)[C@@H]([C@@]3(C)OC3CC=C(C)C)[C@@H]2OC)cc1C(C)C` (stereo partly drawn) [Ex. 16, 6-O-(3-isopropyl-4-ethoxy-6-methylaniline)acetyl fumagillol], the concentration for half-maximal inhibition (IC50) was found to be 0.17 ng/mL (≈ 0.33 nM).
For the compound `COc1c(C(C)C)cc(NCC(=O)O[C@@H]2CC[C@]3(CO3)[C@@H]([C@@]3(C)OC3CC=C(C)C)[C@@H]2OC)cc1C(C)C` (stereo partly drawn) [Ex. 14, 6-O-(3,5-diisopropyl-4-methoxyaniline)acetyl fumagillol], the IC50 was 14 ng/mL (≈ 26.4 nM).
For `CO[C@@H]1[C@H](OC(=O)CNCC(C)N(C)C)CC[C@]2(CO2)[C@H]1[C@@]1(C)OC1CC=C(C)C` (stereo partly drawn) [Ex. 69, 6-O-(2-dimethylamino-propylamino)acetyl fumagillol], the half-inhibitory concentration (IC50) is 260 ng/mL (≈ 612 nM).
`CCCCNCC(=O)O[C@@H]1CC[C@]2(CO2)[C@@H]([C@@]2(C)OC2CC=C(C)C)[C@@H]1OC` (stereo partly drawn) [Ex. 44, 6-O-(1-butylamino)acetyl fumagillol]: the IC50 is 3200 ng/mL (≈ 8090 nM).
The same measure, in the same setting: with `COc1ccc(NCC(=O)O[C@@H]2CC[C@]3(CO3)[C@@H]([C@@]3(C)OC3CC=C(C)C)[C@@H]2OC)cc1` (stereo partly drawn) [Ex. 1, 6-O-(4-methoxyaniline)acetyl fumagillol] the figure was 0.0071 ng/mL (≈ 0.0159 nM).
Same read-out and setting: with `COC(=O)C(NCC(=O)O[C@@H]1CC[C@]2(CO2)[C@@H]([C@@]2(C)OC2CC=C(C)C)[C@@H]1OC)C(C)(C)C` (stereo partly drawn) [Ex. 75, 6-O-(methyl-2-amino-3,3-dimethylbutanoate)acetyl fumagillol] the figure was 2400 ng/mL (≈ 5130 nM); with `COc1ccc(NCC(=O)O[C@@H]2CC[C@]3(CO3)[C@@H]([C@@]3(C)OC3CC=C(C)C)[C@@H]2OC)nn1` (stereo partly drawn) [Ex. 38, 6-O-(3-methoxy-6-aminopyridazine)acetyl fumagillol], 0.019 ng/mL (≈ 0.0425 nM).
For `CO[C@@H]1[C@H](OC(=O)CNCC(C)(C)OC)CC[C@]2(CO2)[C@H]1[C@@]1(C)OC1CC=C(C)C` (stereo partly drawn) [Ex. 70, 6-O-(2-methoxy-2-methyl-propylamino)acetyl fumagillol], the half-inhibitory concentration (IC50) came out at 178 ng/mL (≈ 418 nM).
For `C#CC(C)(C)NCC(=O)O[C@@H]1CC[C@]2(CO2)[C@@H]([C@@]2(C)OC2CC=C(C)C)[C@@H]1OC` (stereo partly drawn) [Ex. 59, 6-O-(1,1-dimethyl-2-propinylamino)acetyl fumagillol], the 50% inhibitory concentration (IC50) came out at 174 ng/mL (≈ 429 nM).
Same read-out and setting: with `CO[C@@H]1[C@H](OC(=O)CNC(C)C(C)(C)C)CC[C@]2(CO2)[C@H]1[C@@]1(C)OC1CC=C(C)C` (stereo partly drawn) [Ex. 53, 6-O-(1,2,2-trimethylpropylamino)acetyl fumagillol] the figure was 162 ng/mL (≈ 382 nM); with `CO[C@@H]1[C@H](OC(=O)NC(=O)CCl)CC[C@]2(CO2)[C@H]1[C@@]1(C)O[C@@H]1CC=C(C)C` [TNP-470, reference compound], 29 ng/mL (≈ 72.2 nM); with `CO[C@@H]1[C@H](OC(=O)CNC2CCC2)CC[C@]2(CO2)[C@H]1[C@@]1(C)OC1CC=C(C)C` (stereo partly drawn) [Ex. 64, 6-O-(cyclobutylamino)acetyl fumagillol], 0.07 ng/mL (≈ 0.178 nM).
For the compound `CO[C@@H]1[C@H](OC(=O)CNC(C)C)CC[C@]2(CO2)[C@H]1[C@@]1(C)OC1CC=C(C)C` (stereo partly drawn) [Ex. 42, 6-O-(isopropylamino)acetyl fumagillol], the IC50 was 12 ng/mL (≈ 31.5 nM).
Still for that read-out and setting: with `CO[C@@H]1[C@H](OC(=O)CNC2CCCC2)CC[C@]2(CO2)[C@H]1[C@@]1(C)OC1CC=C(C)C` (stereo partly drawn) [Ex. 65, 6-O-(cyclopentylamino)acetyl fumagillol] the figure was 250 ng/mL (≈ 613 nM); with `CO[C@@H]1[C@H](OC(=O)CNc2ccc(OCC(C)C)cc2)CC[C@]2(CO2)[C@H]1[C@@]1(C)OC1CC=C(C)C` (stereo partly drawn) [Ex. 11], 0.08 ng/mL (≈ 0.164 nM).
Still for that read-out and setting: next, `CCCCCNCC(=O)O[C@@H]1CC[C@]2(CO2)[C@@H]([C@@]2(C)OC2CC=C(C)C)[C@@H]1OC` (stereo partly drawn) [Ex. 48, 6-O-(pentylamino)acetyl fumagillol]: 3000 ng/mL (≈ 7320 nM); `COC(=O)C(C)NCC(=O)O[C@@H]1CC[C@]2(CO2)[C@@H]([C@@]2(C)OC2CC=C(C)C)[C@@H]1OC` (stereo partly drawn) [Ex. 74, 6-O-(alaninemethylesteramino)acetyl fumagillol]: 800 ng/mL (≈ 1880 nM); `COc1ccc(NCC(=O)O[C@@H]2CC[C@]3(CO3)[C@@H]([C@@]3(C)OC3CC=C(C)C)[C@@H]2OC)c(OC)c1OC` (stereo partly drawn) [Ex. 25]: 0.31 ng/mL (≈ 0.613 nM).
On the same count and under the same terms, with `COc1cc(NCC(=O)O[C@@H]2CC[C@]3(CO3)[C@@H]([C@@]3(C)OC3CC=C(C)C)[C@@H]2OC)cc(OC)c1OC` (stereo partly drawn) [Ex. 2, 6-O-(3,4,5-trimethoxyaniline)acetyl fumagillol] the figure was 0.15 ng/mL (≈ 0.297 nM); with `CCCC(C)NCC(=O)O[C@@H]1CC[C@]2(CO2)[C@@H]([C@@]2(C)OC2CC=C(C)C)[C@@H]1OC` (stereo partly drawn) [Ex. 49, 6-O-(1-methyl-butylamino)acetyl fumagillol], 44 ng/mL (≈ 107 nM).
Take `CO[C@@H]1[C@H](OC(=O)CNc2ccc(OCCOC(C)=O)cc2)CC[C@]2(CO2)[C@H]1[C@@]1(C)OC1CC=C(C)C` (stereo partly drawn) [Ex. 8, 6-O-(4-(2-acetoxyethoxy)aniline)acetyl fumagillol]: the IC50 was 42 ng/mL (≈ 81.1 nM).
Still for that read-out and setting: with `CNCCOc1ccc(NCC(=O)O[C@@H]2CC[C@]3(CO3)[C@@H]([C@@]3(C)OC3CC=C(C)C)[C@@H]2OC)cc1` (stereo partly drawn) [Ex. 30, 6-O-(4-ethylaminoethoxyaniline)acetyl fumagillol] the figure was 0.09 ng/mL (≈ 0.184 nM).
The same measure, in the same setting: next, `CO[C@@H]1[C@H](OC(=O)CNC(C)(C)CC(C)=O)CC[C@]2(CO2)[C@H]1[C@@]1(C)OC1CC=C(C)C` (stereo partly drawn) [Ex. 72, 6-O-(1,1-dimethyl-3-oxobutylamino)acetyl fumagillol]: 330 ng/mL (≈ 754 nM).
On the same count and under the same terms, next, `CO[C@@H]1[C@H](OC(=O)CNc2ccc(N)cc2)CC[C@]2(CO2)[C@H]1[C@@]1(C)OC1CC=C(C)C` (stereo partly drawn) [Ex. 22, 6-O-(4-aminoaniline)acetyl fumagillol]: 179 ng/mL (≈ 416 nM).

Staying with this assay, now noted: Homo sapiens; HUVEC growth, cultured 2–3 days with compound, absorption at 490 nm; read-out: IC50.
In the case of `COc1cnc(NCC(=O)O[C@@H]2CC[C@]3(CO3)[C@@H]([C@@]3(C)OC3CC=C(C)C)[C@@H]2OC)nc1` (stereo partly drawn) [Ex. 37, 6-O-(5-methoxypyrimidine-2-amino)acetyl fumagillol], the IC50 is 0.017 ng/mL (≈ 0.038 nM).
Still for that read-out and setting: with `CO[C@@H]1[C@H](OC(=O)CNC(C(C)C)C(C)C)CC[C@]2(CO2)[C@H]1[C@@]1(C)OC1CC=C(C)C` (stereo partly drawn) [Ex. 54, 6-O-(1-isopropyl-2-methylpropylamino)acetyl fumagillol] the figure was 11 ng/mL (≈ 25.1 nM).

Still in this assay, the particulars now being: relative to TNP-470.
In the case of `COc1ccc(NCC(=O)O[C@@H]2CC[C@]3(CO3)[C@@H]([C@@]3(C)OC3CC=C(C)C)[C@@H]2OC)cc1` (stereo partly drawn) [Ex. 1, 6-O-(4-methoxyaniline)acetyl fumagillol], the “inhibitory effect on HUVEC, times greater than TNP-470” value came to 2000 times.
